Measured values published in patent US7514432B2, “Compounds and methods of treating cell proliferative diseases, retinopathies and arthritis” (Exonhit Therapeutics SA, priority 2003, dated 2009).

Experiments:
HMEC1 = test: Cell viability assay (MTT), HMEC1; type: cell-based, Human; conditions: MTT, 10% FBS, 6-day treatment, 1% DMSO
Procedure: (§1) Table 12: 6-day cell viability assay (MTT) in the presence of 10% Fetal Bovine Serum and 1% DMSO, in HMEC1, HCT116, MDA-MB-231, MCF7 and NIH3T3 cell lines. 3 10^3 to 15 10^3 cells were seeded in 48-well plates in growth medium containing 10% FBS, with or without various concentrations of test compounds. Cell cultures were fed every 3 days with the appropriate media. Cell viability was determined on day 6. Data were analyzed and IC50s were calculated from dose-response curves using GraphPad Prism. Results summarized in the tables are mean±SEM of 1 to 8 independent experiments.
(§2) In order to determine a compound's effect on cell viability, microculture tetrazolium assays (MTT) were performed as described by Carmichael et al. (1996) with modifications. Four human tumoral cell lines, namely HCT116 colon adenocarcinoma, H460 lung carcinoma, MCF-7 and MDA-MB-231 breast carcinoma cell lines, DLD1 colorectal adenocarcinoma, HeLa adenocarcinoma, HepG2 hepatocellular carcinoma. 3 immortalized but non tumorigenic cell lines, namely NIH3T3 mouse fibroblasts (American Type Culture Collection) and primary hepatocytes (Biopredic international), cultured according to their recommendations together with Human Microvasculature Endothelial Cell line HMEC1 (National Center for Infectious Diseases). Briefly, cells were seeded in 48-well plates 24 hours before drug addition. Cells were treated with 0 to 200 μM (11 concentrations) of compound solubilized in DMSO, adjusting the final concentration of DMSO to 1% in the well. 16 hours, and three or six days after treatment, 0.5 mg/ml MTT (Sigma) was added to the medium and cells were incubated for 1-5 hours at 37° C. before solubilization of formazan crystals in 100% DMSO. Absorbance was measured using a spectrophotometer at a wavelength of 550 nm. Data was analyzed using the GraphPad Prism software (GraphPad Software, Inc.), and IC50 (dose leading to 50% cell death) was calculated from the dose-response curves.

HCT116 = test: Cell viability assay (MTT), HCT116; type: cell-based, human; conditions: 10% FBS, 6-day treatment, 1% DMSO
Procedure: as §1
(§3) Table 13: 6-day cell viability assay (MTT) in the presence of 0.5% Fetal Bovine Serum and 1% DMSO, in HCT116 and MDA-MB-231 cell lines. 7.5 10^4 to 15 10^4 cells were seeded in 48-well plates in growth medium containing 10% FBS, with or without various concentrations of test compounds. Cell cultures were fed every 3 days with the appropriate media. Cell viability was determined on day 6. Data were analyzed and IC50s were calculated from dose-response curves using GraphPad Prism. Results summarized in the tables are mean±SEM of 1 to 2 independent experiments.
(§4) Table 14: 3-day cell viability assay (MTT) in the presence of 10% Fetal Bovine Serum and 1% DMSO, in DLD1, HCT116, MDA-MB-231, MCF7 and HeLa cells. 7.5 10^3 to 1.5 10^4 cells were seeded in 48-well plates in growth medium containing 10% FBS, with or without various concentrations of test compounds. Data were analyzed and IC50s were calculated from dose-response curves using GraphPad Prism. Results summarized in the tables are mean±SEM of 1 to 7 independent experiments.
(§5) Table 15: 16-hour cell viability assay (MTT) in the presence of 10% Fetal Bovine Serum and 1% DMSO, in HCT116, MDA-MB-231, NIH3T3, HepG2 and primary hepatocytes. 5 10^4 to 10 10^4 cells were seeded in 48-well plates in growth medium containing 10% FBS, with or without various concentrations of test compounds. Data were analyzed and IC50s were calculated from dose-reponse curves using GraphPad Prism. Results summarized in the tables are mean±SEM of 1 to 2 independent experiments.
as §2

MDA-MB-231 = test: Cell viability assay (MTT), MDA-MB-231; type: cell-based, human; conditions: Homo sapiens, MDA-MB-231, 144 h, 10% FBS, 6-day treatment, 1% DMSO, read-out: IC50 μM, MDA-MB-231
Procedure: as §1, §3, §4, §5, §2

NIH 3T3 = test: Cell viability assay (MTT), NIH 3T3; type: cell-based, mouse; conditions: Mus musculus, NIH3T3, 144 h, 10% FBS, 6-day treatment, 1% DMSO
Procedure: as §1, §5, §2

| Structure (SMILES) | IC50 (HMEC1; Homo sapiens, HMEC-1, 144 h) | IC50 (HCT116; Homo sapiens, HCT-116, 144 h) | melting point | IC50 (HMEC1) | IC50 (HCT116) | IC50 (MDA-MB-231) | IC50 (NIH 3T3) |
| --- | --- | --- | --- | --- | --- | --- | --- |
| Cl.Cl.Cl.O=c1cc(CN2CCNCC2)occ1OCCCCCOc1ccnc2cc(Cl)ccc12 [EHT 0872, 5-(5-(7-Chloroquinolin-4-yloxy)pentyloxy)-2-((piperazin-1-yl)methyl)-4H-pyran-4-one trihydrochloride] | 28.4 µM | 9.3 µM | 164.7 °C |  |  |  |  |
| O=c1cc(COC2CCCCO2)occ1OCCCCCCCCSc1ccnc2cc(C(F)(F)F)ccc12 (stereo not drawn) [EHT 1006, 5-(8-(7-(Trifluoromethyl)quinolin-4-ylthio)octyloxy)-2-((tetrahydro-2H-pyran-2-yloxy)methyl)-4H-pyran-4-one] | < 10 µM |  | 66.1 °C | 9.5 µM |  |  |  |
| O=c1cc(CCl)occ1OCCCCCSc1ccnc2cc(C(F)(F)F)ccc12 [EHT 1494, 2-Chloromethyl-5-[5-(7-trifluoromethyl-quinolin-4-ylsulfanyl)-pentyloxy]-4H-pyran-4-one] |  |  | 38.2 °C |  |  |  |  |
| COCOCc1cc(=O)c(OCCCCCSc2ccnc3cc(C(F)(F)F)ccc23)co1 [EHT 2168, 2-Methoxymethoxymethyl-5-[5-(7-trifluoromethyl-quinolin-4-ylsulfanyl)-pentyloxy]-4H-pyran-4-one] | 19.3 µM | 6 µM | 122.1 °C (dec.) |  |  |  |  |
| CC(C)(C)OC(=O)N1CCN(Cc2cc(=O)c(OCCCCCOc3ccnc4cc(Cl)ccc34)co2)CC1 [EHT 2580, tert-Butyl 4-((5-(5-(7-chloroquinolin-4-yloxy)pentyloxy)-4-oxo-4H-pyran-2-yl)methyl)piperazine-1-carboxylate] |  |  | 130.2 °C |  |  |  |  |
| CC(=O)N1CCN(Cc2cc(=O)c(OCCCCCSc3ccnc4cc(C(F)(F)F)ccc34)co2)CC1 [EHT 3980, 5-(5-(7-(Trifluoromethyl)quinolin-4-ylthio)pentyloxy)-2-((4-acetylpiperazin-1-yl)methyl)-4H-pyran-4-one] | 38.5 µM | < 4 µM | 99.5 °C |  | 2.3 µM |  |  |
| CN1CCN(Cc2cc(=O)c(OCCCCCOc3ncnc4ccccc34)co2)CC1 [EHT 4063, 5-(5-(Quinazolin-4-yloxy)pentyloxy)-2-((4-methylpiperazin-1-yl)methyl)-4H-pyran-4-one] | ~200 µM | ~200 µM | 78.2 °C |  |  |  |  |
| O=c1cc(COC2CCCCO2)occ1OCCCCSc1ccnc2cc(C(F)(F)F)ccc12 (stereo not drawn) [EHT 4745, 2-(Tetrahydro-pyran-2-yloxymethyl)-5-[4-(7-trifluoromethyl-quinolin-4-ylsulfanyl)-butoxy]-4H-pyran-4-one] | < 10 µM | 4.1 µM | 97.3 °C (dec.) | 9.8 µM |  |  |  |
| O=c1cc(CO)occ1OCCCCCSc1ccnc2cc(C(F)(F)F)ccc12 [EHT 5909, 2-Hydroxymethyl-5-[5-(7-trifluoromethyl-quinolin-4-ylsulfanyl)-pentyloxy]-4H-pyran-4-one] |  |  | 133.2 °C (dec.) |  |  |  |  |
| O=C(CCCCOc1coc(CN2CCOCC2)cc1=O)Nc1ccnc2cc(C(F)(F)F)ccc12 [EHT 6037, 5-(6-(Morpholinomethyl)-4-oxo-4H-pyran-3-yloxy)-N-(7-(trifluoromethyl)quinolin-4-yl)pentanamide] |  |  | 126.8 °C |  |  |  |  |
| O=c1cc(COC2CCCCO2)occ1OCCCCCCSc1ccnc2cc(C(F)(F)F)ccc12 (stereo not drawn) [EHT 6271, 2-(Tetrahydro-pyran-2-yloxymethyl)-5-[6-(7-trifluoromethyl-quinolin-4-ylsulfanyl)-hexyloxy]-4H-pyran-4-one] | < 10 µM |  | 67.8 °C | 9 µM |  |  |  |
| O=c1cc(CN2CCOCC2)occ1OCCOc1ccnc2cc(C(F)(F)F)ccc12 [EHT 6892, 5-(2-(7-(trifluoromethyl)quinolin-4-yloxy)ethoxy)-2-(morpholinomethyl)-4H-pyran-4-one] |  | 101 µM | 125.6 °C |  |  |  |  |
| CCN(CC)Cc1cc(=O)c(OCCCCCSc2ccnc3cc(C(F)(F)F)ccc23)co1 [EHT 7370, 2-((Diethylamino)methyl)-5-(5-(7-(trifluoromethyl)quinolin-4-ylthio)pentyloxy)-4H-pyran-4-one] | 12.1 µM | 4.4 µM | 71.2 °C |  |  |  |  |
| CS(=O)(=O)N1CCN(Cc2cc(=O)c(OCCCCCSc3ccnc4cc(C(F)(F)F)ccc34)co2)CC1 [EHT 8366, 5-(5-(7-(Trifluoromethyl)quinolin-4-ylthio)pentyloxy)-2-((4-Methylsulfonylpiperazin-1-yl)methyl)-4H-pyran-4-one] |  |  | 66.3 °C |  |  |  |  |
| O=c1cc(CF)occ1OCCCCCSc1ccnc2cc(C(F)(F)F)ccc12 [EHT 8817, 5-(5-(7-(Trifluoromethyl)quinolin-4-ylthio)pentyloxy)-2-(fluoromethyl)-4H-pyran-4-one] | 41 µM | 12.1 µM | 107 °C |  |  |  |  |
| O=c1cc(CN2CCOCC2)occ1OCc1ccccc1CSc1ccnc2cc(C(F)(F)F)ccc12 [EHT 9069, 5-((2-((7-(Trifluoromethyl)quinolin-4-ylthio)methyl)phenyl)methoxy)-2-(morpholinomethyl)-4H-pyran-4-one] | 34.8 µM | 15.5 µM | 71.6 °C |  |  | 13.5 µM | 41.3 µM |
| O=c1cc(CN2CCCCC2)occ1OCCCCCSc1ccnc2cc(C(F)(F)F)ccc12 [EHT 9317, 5-(5-(7-(Trifluoromethyl)quinolin-4-ylthio)pentyloxy)-2-((piperidin-1-yl)methyl)-4H-pyran-4-one] | 11.7 µM | < 4 µM | 108.9 °C |  | 2.3 µM |  |  |
